Key:
[1] = target: Carbonic anhydrase 14 (Homo sapiens, UniProt Q9ULX7)
[2] = target: Carbonic anhydrase 12 (Homo sapiens, UniProt O43570)
[3] = target: Carbonic anhydrase 1 (Homo sapiens, UniProt P00915)
[4] = Solubility of the compound in water; format: physicochemical
[5] = target: Carbonic anhydrase 2 (Homo sapiens, UniProt P00918)
[6] = target: Carbonic anhydrase 9 (Homo sapiens, UniProt Q16790)

Sequence of Carbonic anhydrase 12 (O43570 whole entry): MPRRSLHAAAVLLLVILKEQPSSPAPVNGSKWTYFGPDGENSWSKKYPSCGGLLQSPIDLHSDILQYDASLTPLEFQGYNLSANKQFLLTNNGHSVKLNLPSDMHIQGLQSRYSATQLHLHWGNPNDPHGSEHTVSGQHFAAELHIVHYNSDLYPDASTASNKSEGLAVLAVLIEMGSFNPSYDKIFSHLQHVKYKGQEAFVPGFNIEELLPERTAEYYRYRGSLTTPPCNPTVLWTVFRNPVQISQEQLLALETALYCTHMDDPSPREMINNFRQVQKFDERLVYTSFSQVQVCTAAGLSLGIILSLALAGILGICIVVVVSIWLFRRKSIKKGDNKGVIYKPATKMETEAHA
Sequence of Carbonic anhydrase 14 (Q9ULX7 whole entry): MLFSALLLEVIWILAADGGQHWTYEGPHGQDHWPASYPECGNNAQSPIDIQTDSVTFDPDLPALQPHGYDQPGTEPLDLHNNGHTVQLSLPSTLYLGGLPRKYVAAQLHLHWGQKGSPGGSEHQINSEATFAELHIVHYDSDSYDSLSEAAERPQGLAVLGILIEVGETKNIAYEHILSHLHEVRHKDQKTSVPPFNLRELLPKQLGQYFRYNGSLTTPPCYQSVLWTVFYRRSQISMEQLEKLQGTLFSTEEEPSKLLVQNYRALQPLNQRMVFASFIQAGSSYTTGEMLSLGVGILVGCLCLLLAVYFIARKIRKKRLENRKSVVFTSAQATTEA
Sequence of Carbonic anhydrase 1 (P00915 whole entry): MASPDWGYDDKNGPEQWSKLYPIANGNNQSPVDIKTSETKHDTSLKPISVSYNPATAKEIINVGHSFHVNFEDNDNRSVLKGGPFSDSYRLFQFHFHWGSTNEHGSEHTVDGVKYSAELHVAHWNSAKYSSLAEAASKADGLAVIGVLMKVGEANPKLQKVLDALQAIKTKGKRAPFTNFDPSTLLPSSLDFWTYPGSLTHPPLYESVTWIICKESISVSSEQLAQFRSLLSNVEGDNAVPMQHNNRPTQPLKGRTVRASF

| Compound | Ki [1] [µM] | Ki [2] [µM] | Ki [3] [µM] | solubility [4] [mg/mL] | Ki [5] [µM] | Ki [6] [µM] |
| --- | --- | --- | --- | --- | --- | --- |
| NS(=O)(=O)c1ccc(CCNC(=S)N[C@@H]2O[C@H](CO)[C@H](O)[C@H](O)[C@H]2O)cc1 | 0.108 | 0.0102 | 5.79 | > 20 | 0.0093 | 0.0028 |
| NS(=O)(=O)c1ccc(CCNC(=S)N[C@@H]2O[C@H](CO)[C@@H](O[C@@H]3O[C@H](CO)[C@H](O)[C@H](O)[C@H]3O)[C@H](O)[C@H]2O)cc1 | 0.0084 | 0.0135 | 0.1 | > 20 | 0.009 | 0.0089 |
| CC(=O)OC[C@H]1O[C@@H](NC(=S)NCc2ccc(S(N)(=O)=O)cc2)[C@H](OC(C)=O)[C@@H](OC(C)=O)[C@H]1OC(C)=O | 0.807 | 0.1 | 6.34 | – | 0.0119 | – |
| CC(=O)OC[C@H]1O[C@@H](NC(=S)Nc2ccc(S(N)(=O)=O)cc2)[C@H](OC(C)=O)[C@@H](OC(C)=O)[C@H]1OC(C)=O | 0.126 | 0.0456 | 6.71 | – | 0.524 | – |
| CC(=O)OC[C@H]1O[C@@H](NC(=S)NCCc2ccc(S(N)(=O)=O)cc2)[C@H](OC(C)=O)[C@@H](OC(C)=O)[C@@H]1OC(C)=O | 0.0088 | 0.0089 | 5.51 | – | 0.0073 | 0.451 |
| NS(=O)(=O)c1ccc(NC(=S)N[C@@H]2O[C@H](CO)[C@@H](O)[C@H](O)[C@H]2O)cc1 | 0.041 | 0.0082 | 7.68 | > 20 | 0.007 | 0.282 |
| NS(=O)(=O)c1ccc(CNC(=S)N[C@@H]2O[C@H](CO)[C@@H](O[C@@H]3O[C@H](CO)[C@H](O)[C@H](O)[C@H]3O)[C@H](O)[C@H]2O)cc1 | 0.044 | 0.0079 | 4.06 | > 20 | 0.105 | 0.0083 |
| NS(=O)(=O)c1ccc(NC(=S)N[C@@H]2O[C@H](CO)[C@@H](O[C@@H]3O[C@H](CO)[C@H](O)[C@H](O)[C@H]3O)[C@H](O)[C@H]2O)cc1 | 0.055 | 0.081 | 7.98 | > 20 | 0.0069 | 0.258 |
| CC(=O)OC[C@H]1O[C@@H](NC(=S)NCCc2ccc(S(N)(=O)=O)cc2)[C@H](OC(C)=O)[C@@H](OC(C)=O)[C@@H]1O[C@H]1O[C@H](COC(C)=O)[C@@H](OC(C)=O)[C@H](OC(C)=O)[C@H]1OC(C)=O | 0.0087 | 0.0084 | 3.72 | – | 0.0098 | 0.122 |
| NS(=O)(=O)c1ccc(NC(=S)N[C@@H]2O[C@H](CO)[C@H](O)[C@H](O)[C@H]2O)cc1 | 0.125 | 0.0201 | 6.84 | > 20 | 0.222 | – |
| CC(=O)OC[C@H]1O[C@@H](NC(=S)NCc2ccc(S(N)(=O)=O)cc2)[C@H](OC(C)=O)[C@@H](OC(C)=O)[C@@H]1O[C@H]1O[C@H](COC(C)=O)[C@@H](OC(C)=O)[C@H](OC(C)=O)[C@H]1OC(C)=O | 0.0086 | 0.0084 | 4.57 | – | 0.0073 | – |
| CC(=O)OC[C@H]1O[C@@H](NC(=S)NCCc2ccc(S(N)(=O)=O)cc2)[C@H](OC(C)=O)[C@@H](OC(C)=O)[C@H]1OC(C)=O | 0.0087 | 0.0088 | 0.1 | – | 0.297 | 0.433 |
| CC(=O)OC[C@H]1O[C@@H](O[C@H]2[C@H](OC(C)=O)[C@@H](OC(C)=O)[C@H](NC(=S)NCc3ccc(S(N)(=O)=O)cc3)O[C@@H]2COC(C)=O)[C@H](OC(C)=O)[C@@H](OC(C)=O)[C@H]1OC(C)=O | 0.0085 | 0.0074 | 0.11 | – | 0.39 | – |
| CC(=O)OC[C@H]1O[C@@H](O[C@H]2[C@H](OC(C)=O)[C@@H](OC(C)=O)[C@H](NC(=S)NCCc3ccc(S(N)(=O)=O)cc3)O[C@@H]2COC(C)=O)[C@H](OC(C)=O)[C@@H](OC(C)=O)[C@H]1OC(C)=O | 0.0091 | 0.0481 | 3.77 | – | 0.0087 | 0.362 |
| NS(=O)(=O)c1ccc(C(=O)NNC(=S)N[C@@H]2O[C@H](CO)[C@@H](O[C@@H]3O[C@H](CO)[C@H](O)[C@H](O)[C@H]3O)[C@H](O)[C@H]2O)cc1 | 0.0085 | 0.0087 | – | > 20 | 0.0074 | – |
| CC(=O)OC[C@H]1O[C@@H](O[C@H]2[C@H](OC(C)=O)[C@@H](OC(C)=O)[C@H](NC(=S)Nc3ccc(S(N)(=O)=O)cc3)O[C@@H]2COC(C)=O)[C@H](OC(C)=O)[C@@H](OC(C)=O)[C@H]1OC(C)=O | 0.0086 | 0.0082 | 0.1 | – | 0.0076 | – |

| Compound | Ki [1] [µM] | Ki [2] [µM] | Ki [3] [µM] | solubility [4] [mg/mL] | Ki [5] [µM] | Ki [6] [µM] |
| --- | --- | --- | --- | --- | --- | --- |
| NS(=O)(=O)c1ccc(CCNC(=S)N[C@@H]2O[C@H](CO)[C@@H](O[C@H]3O[C@H](CO)[C@@H](O)[C@H](O)[C@H]3O)[C@H](O)[C@H]2O)cc1 | 0.0078 | 0.0098 | 4.26 | > 20 | 0.271 | 0.0021 |
| NS(=O)(=O)c1ccc(CNC(=S)N[C@@H]2O[C@H](CO)[C@@H](O)[C@H](O)[C@H]2O)cc1 | 0.016 | 0.0082 | 7.5 | > 20 | 0.377 | – |
| NS(=O)(=O)c1ccc(CNC(=S)N[C@@H]2O[C@H](CO)[C@@H](O[C@H]3O[C@H](CO)[C@@H](O)[C@H](O)[C@H]3O)[C@H](O)[C@H]2O)cc1 | 0.0085 | 0.0125 | 6.3 | > 20 | 0.376 | 0.0084 |
| NS(=O)(=O)c1ccc(C(=O)NNC(=S)N[C@@H]2O[C@H](CO)[C@@H](O)[C@H](O)[C@H]2O)cc1 | 0.008 | 0.0086 | 7.88 | > 20 | 0.525 | – |
| NS(=O)(=O)c1ccc(CCNC(=S)N[C@@H]2O[C@H](CO)[C@@H](O)[C@H](O)[C@H]2O)cc1 | 0.008 | 0.0097 | 0.009 | > 20 | 0.108 | 0.0087 |
| CC(=O)OC[C@H]1O[C@@H](NC(=S)NNC(=O)c2ccc(S(N)(=O)=O)cc2)[C@H](OC(C)=O)[C@@H](OC(C)=O)[C@@H]1O[C@H]1O[C@H](COC(C)=O)[C@@H](OC(C)=O)[C@H](OC(C)=O)[C@H]1OC(C)=O | 0.0105 | 0.0076 | 2.94 | – | 0.0102 | – |
| NS(=O)(=O)c1ccc(CNC(=S)N[C@@H]2O[C@H](CO)[C@H](O)[C@H](O)[C@H]2O)cc1 | 0.129 | 0.111 | 6.42 | > 20 | 0.06 | 0.0069 |
| CC(=O)OC[C@H]1O[C@@H](NC(=S)Nc2ccc(S(N)(=O)=O)cc2)[C@H](OC(C)=O)[C@@H](OC(C)=O)[C@@H]1O[C@H]1O[C@H](COC(C)=O)[C@@H](OC(C)=O)[C@H](OC(C)=O)[C@H]1OC(C)=O | 0.0079 | 0.0101 | 6.04 | – | 0.539 | – |
| CC(=O)OC[C@H]1O[C@@H](NC(=S)NNC(=O)c2ccc(S(N)(=O)=O)cc2)[C@H](OC(C)=O)[C@@H](OC(C)=O)[C@H]1OC(C)=O | 0.0107 | 0.0078 | 6.41 | – | 0.0086 | 0.0033 |
| NS(=O)(=O)c1ccc(C(=O)NNC(=S)N[C@@H]2O[C@H](CO)[C@H](O)[C@H](O)[C@H]2O)cc1 | 0.0082 | 0.0085 | 4.04 | > 20 | 0.344 | – |
| NS(=O)(=O)c1ccc(NC(=S)N[C@@H]2O[C@H](CO)[C@@H](O[C@H]3O[C@H](CO)[C@@H](O)[C@H](O)[C@H]3O)[C@H](O)[C@H]2O)cc1 | 0.0098 | 0.3 | 7.92 | > 20 | 0.0075 | 0.0084 |
| CC(=O)OC[C@H]1O[C@@H](O[C@H]2[C@H](OC(C)=O)[C@@H](OC(C)=O)[C@H](NC(=S)NNC(=O)c3ccc(S(N)(=O)=O)cc3)O[C@@H]2COC(C)=O)[C@H](OC(C)=O)[C@@H](OC(C)=O)[C@H]1OC(C)=O | 0.0106 | 0.0081 | 5.9 | – | 0.0064 | – |
| NS(=O)(=O)c1ccc(C(=O)NNC(=S)N[C@@H]2O[C@H](CO)[C@@H](O[C@H]3O[C@H](CO)[C@@H](O)[C@H](O)[C@H]3O)[C@H](O)[C@H]2O)cc1 | 0.0086 | 0.0082 | – | > 20 | 0.109 | – |
| CC(=O)OC[C@H]1O[C@@H](NC(=S)Nc2ccc(S(N)(=O)=O)cc2)[C@H](OC(C)=O)[C@@H](OC(C)=O)[C@@H]1OC(C)=O | 0.0083 | 0.0072 | 4.93 | – | 0.007 | – |
| CC(=O)OC[C@H]1O[C@@H](NC(=S)NCc2ccc(S(N)(=O)=O)cc2)[C@H](OC(C)=O)[C@@H](OC(C)=O)[C@@H]1OC(C)=O | 0.0085 | 0.0075 | 0.1 | – | 0.0078 | – |
| CC(=O)OC[C@H]1O[C@@H](NC(=S)NNC(=O)c2ccc(S(N)(=O)=O)cc2)[C@H](OC(C)=O)[C@@H](OC(C)=O)[C@@H]1OC(C)=O | 0.0103 | 0.0073 | 3.77 | – | 0.01 | 0.0087 |

Source: ChEMBL document CHEMBL1955849, “Design and synthesis of thiourea compounds that inhibit transmembrane anchored carbonic anhydrases” (Bioorg Med Chem, 2012)
